The source made the active and inactive calls. No cut-off for these calls is given here.
Legend:
[1] = Volume of distribution in Sprague-Dawley rat at 10 mg/kg, iv; assay type: ADME, organism-based; details: in vivo
[2] = target: T1, Multidrug and toxin extrusion protein 1 (Homo sapiens, UniProt Q96FL8); assay: Inhibition of human MATE1 assessed as reduction in MATE1-mediated metformin transport at 14900 uM relative to control
T1 sequence (Q96FL8 whole entry): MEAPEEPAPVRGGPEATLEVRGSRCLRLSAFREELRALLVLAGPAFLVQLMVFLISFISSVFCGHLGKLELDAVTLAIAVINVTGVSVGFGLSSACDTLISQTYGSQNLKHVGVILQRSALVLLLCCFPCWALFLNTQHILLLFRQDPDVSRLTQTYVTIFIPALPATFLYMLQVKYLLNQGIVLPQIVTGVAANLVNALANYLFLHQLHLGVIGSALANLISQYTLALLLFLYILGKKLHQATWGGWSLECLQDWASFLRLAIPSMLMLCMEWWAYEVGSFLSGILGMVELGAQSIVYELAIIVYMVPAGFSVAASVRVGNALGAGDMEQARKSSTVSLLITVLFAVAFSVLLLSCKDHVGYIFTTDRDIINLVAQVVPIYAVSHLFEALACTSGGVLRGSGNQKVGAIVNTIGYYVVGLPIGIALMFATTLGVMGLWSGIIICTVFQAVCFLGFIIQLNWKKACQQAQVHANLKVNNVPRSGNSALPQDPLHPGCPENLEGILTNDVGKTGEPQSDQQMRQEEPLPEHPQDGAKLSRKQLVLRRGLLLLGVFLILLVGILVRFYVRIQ

[3] = Drug metabolism in Sprague-Dawley rat urine assessed as HST5040-glycine metabolite formation at 10 mg/kg administered as single dose by LC/MS analysis; assay type: ADME, organism-based; details: in vivo
[4] = Drug metabolism in Beagle dog hepatocytes assessed as formation of 2,2-dimethylbutanoic acid-CoA incubated for 1 hrs by MS/MS analysis; assay type: ADME, cell-based; details: Canis lupus familiaris, Hepatocyte
[5] = Reduction of propionyl-CoA in human hepatocytes derived from propionic acidemia patient pretreated for 30 mins followed by 13C-isoleucine addition and measured after 1 hr by MS/MS analysis; assay type: functional, cell-based; details: hepatocyte
[6] = target: T2, Cytochrome P450 2B6 (Homo sapiens, UniProt P20813); assay: Time-dependent inhibition of CYP2B6 in human liver microsomes using bupropion as substrate preincubated for 30 mins; assay type: ADME
T2 sequence (P20813 whole entry): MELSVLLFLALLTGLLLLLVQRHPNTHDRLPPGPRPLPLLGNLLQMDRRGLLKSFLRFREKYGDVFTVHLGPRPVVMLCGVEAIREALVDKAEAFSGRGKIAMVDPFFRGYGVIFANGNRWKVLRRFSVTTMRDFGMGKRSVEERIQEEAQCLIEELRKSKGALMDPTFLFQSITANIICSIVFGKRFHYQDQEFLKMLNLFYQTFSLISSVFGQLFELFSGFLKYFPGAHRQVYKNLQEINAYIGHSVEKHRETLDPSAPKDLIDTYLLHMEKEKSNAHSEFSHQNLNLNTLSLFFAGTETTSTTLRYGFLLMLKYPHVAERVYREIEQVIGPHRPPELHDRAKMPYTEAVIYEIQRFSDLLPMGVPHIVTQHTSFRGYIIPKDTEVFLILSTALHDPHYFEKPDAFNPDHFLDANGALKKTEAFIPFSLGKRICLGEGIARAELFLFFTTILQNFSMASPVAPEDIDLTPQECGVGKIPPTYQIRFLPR

[7] = target: T3, OAT3 (Homo sapiens, UniProt Q8TCC7); assay: Inhibition of human OAT3 assessed as reduction in OAT3-mediated tenofovir transport at 14900 uM relative to control; details: not told, probe tenofovir
T3 sequence (Q8TCC7 whole entry): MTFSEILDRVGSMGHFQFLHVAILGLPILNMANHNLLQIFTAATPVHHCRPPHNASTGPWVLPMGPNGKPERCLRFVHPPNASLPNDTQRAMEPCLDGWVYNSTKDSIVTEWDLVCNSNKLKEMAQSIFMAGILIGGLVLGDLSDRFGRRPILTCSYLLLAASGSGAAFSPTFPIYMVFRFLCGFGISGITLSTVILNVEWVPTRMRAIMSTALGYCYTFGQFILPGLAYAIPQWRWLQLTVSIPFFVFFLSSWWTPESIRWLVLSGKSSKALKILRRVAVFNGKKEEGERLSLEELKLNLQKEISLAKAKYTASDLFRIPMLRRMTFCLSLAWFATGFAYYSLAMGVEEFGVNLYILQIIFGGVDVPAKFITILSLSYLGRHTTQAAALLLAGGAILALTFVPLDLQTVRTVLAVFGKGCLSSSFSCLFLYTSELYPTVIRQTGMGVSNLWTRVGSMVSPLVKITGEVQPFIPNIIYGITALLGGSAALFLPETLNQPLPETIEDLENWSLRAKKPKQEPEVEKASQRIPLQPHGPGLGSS

[8] = Drug metabolism in minipig hepatocytes assessed as beta-oxidation by measuring phase1 metabolite formation at 50 uM measured after 4 hrs; assay type: ADME, cell-based, Sus scrofa domesticus, Hepatocyte; details: pig
[9] = Reduction of acetyl carnitine in human hepatocytes derived from propionic acidemia patient at 30 uM pretreated for 30 mins followed by 13C-isoleucine addition and measured after 1 hr by MS/MS analysis relative to control; assay type: functional, Hepatocyte; parameters: scale not given: the % may be the effect or the level left; details: time 90 min, 1.5 h
[10] = AUC (0 to infinity) in Sprague-Dawley rat at 50 mg/kg, po; assay type: ADME, organism-based; parameters: time infinity, route oral, dose 50 mg/kg; details: in vivo
[11] = target: Solute carrier family 22 member 2 (Homo sapiens) (UniProt O15244); assay: Inhibition of human OCT2 assessed as reduction in OCT2-mediated metformin transport at 14900 uM relative to control
[12] = target: Cytochrome P450 3A4 (Homo sapiens, UniProt P08684); assay: Direct inhibition of CYP3A4 in human liver microsomes using testosterone as substrate; assay type: ADME
[13] = target: Solute carrier family 22 member 1 (Homo sapiens) (UniProt O15245); assay: Inhibition of human OCT1 assessed as reduction in OCT1-mediated metformin transport at 14900 uM relative to control
[14] = Drug metabolism in Gottingen minipig urine assessed as HST5040-glycine metabolite formation at 10 mg/kg administered as single dose by LC/MS analysis; assay type: ADME, organism-based, Sus scrofa domesticus; details: pig, in vivo
[15] = Reduction of CoASH in human hepatocytes derived from methylmalonic acidemia at 30 uM pretreated for 30 mins followed by 13C-isoleucine addition and measured after 1 hr by MS/MS analysis; assay type: functional, Hepatocyte; parameters: scale not given: the % may be the effect or the level left; details: time 90 min, 1.5 h
[16] = Reduction of CoASH in human hepatocytes derived from propionic acidemia patient pretreated for 30 mins followed by 13C-isoleucine addition and measured after 1 hr by MS/MS analysis; assay type: functional, cell-based; details: hepatocyte
[17] = Half life in Sprague-Dawley rat at 10 mg/kg, iv; assay type: ADME, organism-based; details: in vivo
[18] = Reduction of 2-Methylcitric acid in human hepatocytes derived from methylmalonic acidemia patient at 30 uM pretreated for 30 mins followed by 13C-isoleucine addition and measured after 1 hr by MS/MS analysis relative to control; assay type: functional, Hepatocyte; parameters: scale not given: the % may be the effect or the level left; details: time 90 min, 1.5 h
[19] = AUC (0 to infinity) in Sprague-Dawley rat at 10 mg/kg, iv; assay type: ADME, organism-based; parameters: route intravenous, time infinity, dose 10 mg/kg; details: in vivo
[20] = Cmax in Sprague-Dawley rat at 10 mg/kg, po; assay type: ADME, organism-based; parameters: route oral, dose 10 mg/kg; details: in vivo
[21] = Drug metabolism in human hepatocytes assessed as beta-oxidation by measuring phase1 metabolite formation at 50 uM measured after 4 hrs; assay type: ADME, cell-based, Hepatocyte

Chain of Cytochrome P450 3A4 (P08684 whole entry): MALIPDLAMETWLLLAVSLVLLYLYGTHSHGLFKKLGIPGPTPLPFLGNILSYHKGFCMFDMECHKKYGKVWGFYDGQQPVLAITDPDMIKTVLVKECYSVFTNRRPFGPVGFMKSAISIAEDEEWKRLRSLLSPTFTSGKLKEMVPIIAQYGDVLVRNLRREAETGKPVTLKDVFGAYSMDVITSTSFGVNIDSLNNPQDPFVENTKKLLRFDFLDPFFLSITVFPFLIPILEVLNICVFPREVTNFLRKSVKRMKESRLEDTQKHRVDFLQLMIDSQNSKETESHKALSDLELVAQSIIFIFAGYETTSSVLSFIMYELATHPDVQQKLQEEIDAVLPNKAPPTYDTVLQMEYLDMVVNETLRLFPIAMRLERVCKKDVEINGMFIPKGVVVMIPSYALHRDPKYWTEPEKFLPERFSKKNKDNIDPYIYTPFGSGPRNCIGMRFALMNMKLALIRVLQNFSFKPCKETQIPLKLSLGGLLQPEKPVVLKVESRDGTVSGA
Chain of Solute carrier family 22 member 1 (Homo sapiens) (O15245 whole entry, looked up): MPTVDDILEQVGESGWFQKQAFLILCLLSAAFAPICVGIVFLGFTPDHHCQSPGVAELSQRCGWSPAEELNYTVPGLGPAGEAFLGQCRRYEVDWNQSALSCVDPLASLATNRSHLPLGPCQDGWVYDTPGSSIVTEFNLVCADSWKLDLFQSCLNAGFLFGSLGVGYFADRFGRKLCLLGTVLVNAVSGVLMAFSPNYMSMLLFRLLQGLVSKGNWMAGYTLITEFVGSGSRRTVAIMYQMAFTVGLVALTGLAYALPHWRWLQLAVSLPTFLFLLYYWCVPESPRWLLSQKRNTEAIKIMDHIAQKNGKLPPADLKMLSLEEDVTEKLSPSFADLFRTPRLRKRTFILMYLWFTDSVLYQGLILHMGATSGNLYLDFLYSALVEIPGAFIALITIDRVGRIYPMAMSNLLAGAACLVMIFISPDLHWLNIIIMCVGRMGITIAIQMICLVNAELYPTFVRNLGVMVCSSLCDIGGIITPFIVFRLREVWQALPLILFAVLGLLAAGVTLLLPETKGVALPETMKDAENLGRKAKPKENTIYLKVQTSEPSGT
Chain of Solute carrier family 22 member 2 (Homo sapiens) (O15244 whole entry, looked up): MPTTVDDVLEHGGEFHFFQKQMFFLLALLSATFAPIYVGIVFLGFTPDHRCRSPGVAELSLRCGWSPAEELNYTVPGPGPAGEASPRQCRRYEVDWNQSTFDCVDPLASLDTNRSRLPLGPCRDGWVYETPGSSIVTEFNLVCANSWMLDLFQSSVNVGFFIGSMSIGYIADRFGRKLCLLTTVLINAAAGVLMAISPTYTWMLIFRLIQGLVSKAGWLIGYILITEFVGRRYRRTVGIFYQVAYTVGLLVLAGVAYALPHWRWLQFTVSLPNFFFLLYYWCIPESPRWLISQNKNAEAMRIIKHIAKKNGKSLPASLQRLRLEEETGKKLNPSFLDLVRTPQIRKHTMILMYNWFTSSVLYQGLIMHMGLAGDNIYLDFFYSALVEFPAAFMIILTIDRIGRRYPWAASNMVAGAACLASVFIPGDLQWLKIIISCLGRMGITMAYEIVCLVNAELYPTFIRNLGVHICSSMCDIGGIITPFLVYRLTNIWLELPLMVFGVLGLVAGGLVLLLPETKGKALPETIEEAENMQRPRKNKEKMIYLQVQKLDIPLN

Vd [1]: 1.22 L/kg
Drug metabolism [3]: Metabolite_Detected
IC50 [6]: > 10000 µM
inhibition at 14900 µM [7]: 90.9%
Drug metabolism [8]: Metabolite_Notdetected
AUC(0-inf) [10]: 33100 ng·h/mL
inhibition [11]: inactive
IC50 [12]: > 10000 µM
inhibition [13]: inactive
Drug metabolism [14]: Metabolite_Detected
half-life [17]: 3.93 h
AUC(0-inf) [19]: 9670 ng·h/mL
Cmax [20]: 4270 ng/mL
Drug metabolism [21]: Metabolite_Notdetected
Compound: CCC(C)(C)C(=O)O [DIMEBUTIC ACID]
inhibition (INH) [2]: Not Active
EC50 [4]: 60 µM
EC50 [5]: 0.94 µM
Activity [9]: 54%
Activity [15]: -22.3%
EC50 [16]: 11.6 µM
Activity [18]: -66.7%
